Reference: PubChem BioAssay AID248 (DTP/NCI, 2004)
Several values for one entry are separate records, joined by “and”; a condition that tells them apart may be missing. Equal values may be shown once. Toxic doses and inconclusive results are not listed.

Tested on: L1210 leukemia ip in BDF1 mice, survival T/C
Test: NCI In Vivo Anticancer Drug Screen. Data for tumor model L1210 Leukemia (intraperitoneal) in B6D2F1 (BDF1) mice
Conditions: endpoint: mean survival time, higher = longer survival
Procedure, shortened: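 Survival endpoint. Drug-treated group vs vehicle group, expressed as T divided by C. Tumor passaged by transplantation.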

[1] = dose: 100.0 mg/kg/injection, schedule: Q01DX009 (ip), vehicle: saline
[2] = dose: 100.0 mg/kg/injection, schedule: Q04DX003 (ip), vehicle: saline
[3] = dose: 100.0 mg/kg/injection, schedule: Q01DX009 (ip), vehicle: Klucel (hydroxypropylcellulose) (HPC)
[4] = dose: 200.0 mg/kg/injection, schedule: Q01DX009 (ip), vehicle: Klucel (hydroxypropylcellulose) (HPC)
[5] = dose: 200.0 mg/kg/injection, schedule: Q04DX002 (ip), vehicle: Klucel (hydroxypropylcellulose) (HPC)
[6] = dose: 400.0 mg/kg/injection, schedule: Q01DX009 (ip), vehicle: Klucel (hydroxypropylcellulose) (HPC)
[7] = dose: 100.0 mg/kg/injection, schedule: Q04DX003 (ip), vehicle: Klucel (hydroxypropylcellulose) (HPC)
[8] = dose: 200.0 mg/kg/injection, schedule: Q04DX003 (ip), vehicle: Klucel (hydroxypropylcellulose) (HPC)
[9] = dose: 400.0 mg/kg/injection, schedule: Q04DX003 (ip), vehicle: Klucel (hydroxypropylcellulose) (HPC)
[10] = dose: 100.0 mg/kg/injection, schedule: Q01DX001 (ip), vehicle: saline
[11] = dose: 200.0 mg/kg/injection, schedule: Q01DX001 (ip), vehicle: saline
[12] = dose: 400.0 mg/kg/injection, schedule: Q01DX001 (ip), vehicle: saline
[13] = dose: 50.0 mg/kg/injection, schedule: Q04DX003 (ip), vehicle: Klucel (hydroxypropylcellulose) (HPC)

C[S+](C)Cc1ccc(C(=O)Oc2ccc([N+](=O)[O-])cc2)cc1
T/C (dose: 25.0 mg/kg/injection, schedule: Q01DX009 (ip), vehicle: saline): 100 % of control
T/C (dose: 25.0 mg/kg/injection, schedule: Q04DX003 (ip), vehicle: saline): 97 % of control
T/C (dose: 50.0 mg/kg/injection, schedule: Q01DX009 (ip), vehicle: saline): 98 % of control
T/C (dose: 50.0 mg/kg/injection, schedule: Q04DX003 (ip), vehicle: saline): 100 % of control
T/C [1]: 96 % of control and 102 % of control
T/C [2]: 100 % of control and 101 % of control
T/C (dose: 200.0 mg/kg/injection, schedule: Q01DX009 (ip), vehicle: saline): 87 % of control

O=C1C2C3CCC(O3)C2C(=O)N1Cc1ccccc1CBr (stereo unspecified)
T/C (dose: 100.0 mg/kg/injection, schedule: Q04DX003 (ip), vehicle: carboxymethylcellulose (CMC)): 95 % of control
T/C (dose: 200.0 mg/kg/injection, schedule: Q04DX003 (ip), vehicle: carboxymethylcellulose (CMC)): 98 % of control

C=C[C@H]1CN2CC[C@H]1C[C@@H]2[C@@H](O)c1ccnc2ccccc12
T/C [3]: 101 % of control
T/C (dose: 100.0 mg/kg/injection, schedule: Q04DX002 (ip), vehicle: Klucel (hydroxypropylcellulose) (HPC)): 103 % of control
T/C [4]: 93 % of control
T/C [5]: 103 % of control
T/C [6]: 93 % of control
T/C (dose: 400.0 mg/kg/injection, schedule: Q04DX002 (ip), vehicle: Klucel (hydroxypropylcellulose) (HPC)): 96 % of control

NNC(=O)c1ccc(Cl)c(Cl)c1
T/C (dose: 100.0 mg/kg/injection, schedule: Q01DX001 (ip), vehicle: Klucel (hydroxypropylcellulose) (HPC)): 104 % of control
T/C (dose: 200.0 mg/kg/injection, schedule: Q01DX001 (ip), vehicle: Klucel (hydroxypropylcellulose) (HPC)): 117 % of control
T/C (dose: 400.0 mg/kg/injection, schedule: Q01DX001 (ip), vehicle: Klucel (hydroxypropylcellulose) (HPC)): 112 % of control

CCOC(=O)C(C(=O)Nc1ccccc1)C(=O)OCC
T/C [3]: 99 % of control
T/C [7]: 90 % of control
T/C [4]: 100 % of control
T/C [8]: 93 % of control
T/C [6]: 105 % of control
T/C [9]: 98 % of control

C[Si](C)(C)Cc1ccccc1F
T/C (dose: 25.6 mg/kg/injection, schedule: Q04DX002 (ip), vehicle: saline with Tween-80): 101 % of control
T/C (dose: 64.0 mg/kg/injection, schedule: Q04DX002 (ip), vehicle: saline with Tween-80): 93 % of control
T/C (dose: 160.0 mg/kg/injection, schedule: Q04DX002 (ip), vehicle: saline with Tween-80): 104 % of control
T/C (dose: 400.0 mg/kg/injection, schedule: Q04DX002 (ip), vehicle: saline with Tween-80): 90 % of control

O=C(CCN1CC1)Nc1ccc(NC(=O)CCN2CC2)cc1
T/C (dose: 2.0 mg/kg/injection, schedule: Q01DX009 (ip), vehicle: Klucel (hydroxypropylcellulose) (HPC)): 121 % of control
T/C (dose: 3.0 mg/kg/injection, schedule: Q01DX009 (ip), vehicle: Klucel (hydroxypropylcellulose) (HPC)): 156 % of control
T/C (dose: 6.6 mg/kg/injection, schedule: Q01DX009 (ip), vehicle: Klucel (hydroxypropylcellulose) (HPC)): 184 % of control
T/C (dose: 10.0 mg/kg/injection, schedule: Q04DX003 (ip), vehicle: Klucel (hydroxypropylcellulose) (HPC)): 115 % of control
T/C (dose: 20.0 mg/kg/injection, schedule: Q01DX009 (ip), vehicle: Klucel (hydroxypropylcellulose) (HPC)): 97 % of control
T/C (dose: 40.0 mg/kg/injection, schedule: Q04DX003 (ip), vehicle: Klucel (hydroxypropylcellulose) (HPC)): 171 % of control and 181 % of control

c1ccc2c(c1)CCCN2
T/C [10]: 99 % of control
T/C [11]: 89 % of control
T/C [12]: 89 % of control

c1ccc([P+]2(c3ccccc3)CC[P+](c3ccccc3)(c3ccccc3)CC2)cc1
T/C (dose: 9.5 mg/kg/injection, schedule: Q01DX001 (ip), vehicle: saline): 103 % of control
T/C (dose: 19.0 mg/kg/injection, schedule: Q01DX001 (ip), vehicle: saline): 101 % of control
T/C (dose: 38.0 mg/kg/injection, schedule: Q01DX001 (ip), vehicle: saline): 97 % of control
T/C (dose: 75.0 mg/kg/injection, schedule: Q01DX001 (ip), vehicle: saline): 100 % of control

O=NN(CCCl)C(=O)Nc1ccc2ccccc2c1
T/C (dose: 200.0 mg/kg/injection, schedule: Q01DX001 (ip), vehicle: carboxymethylcellulose (CMC)): 161 % of control
T/C (dose: 300.0 mg/kg/injection, schedule: Q01DX001 (ip), vehicle: carboxymethylcellulose (CMC)): 172 % of control
T/C (dose: 400.0 mg/kg/injection, schedule: Q01DX001 (ip), vehicle: carboxymethylcellulose (CMC)): 96 % of control

COC1(OC)C2(Cl)C3C4C5(OC(C)=O)C(=O)C3(OC(C)=O)C3C5C(Cl)(C41Cl)C32Cl (stereo unspecified)
T/C [10]: 100 % of control
T/C [11]: 96 % of control
T/C [12]: 96 % of control

Nc1cc(S(N)(=O)=O)ccc1N1CCCC1
T/C (dose: 100.0 mg/kg/injection, schedule: Q04DX003 (ip), vehicle: saline with Tween-80): 96 % of control
T/C (dose: 200.0 mg/kg/injection, schedule: Q04DX003 (ip), vehicle: saline with Tween-80): 91 % of control
T/C (dose: 400.0 mg/kg/injection, schedule: Q04DX003 (ip), vehicle: saline with Tween-80): 102 % of control

O=c1[nH]c2ccccc2nc1C(Cl)Cl
T/C [7]: 115 % of control

CN(C)/C=C/c1nnc([N+](=O)[O-])s1
T/C (dose: 62.0 mg/kg/injection, schedule: Q04DX003 (ip), vehicle: Klucel (hydroxypropylcellulose) (HPC)): 100 % of control
T/C (dose: 123.0 mg/kg/injection, schedule: Q04DX003 (ip), vehicle: Klucel (hydroxypropylcellulose) (HPC)): 98 % of control
T/C (dose: 256.0 mg/kg/injection, schedule: Q04DX003 (ip), vehicle: Klucel (hydroxypropylcellulose) (HPC)): 98 % of control
T/C (dose: 512.0 mg/kg/injection, schedule: Q04DX003 (ip), vehicle: Klucel (hydroxypropylcellulose) (HPC)): 100 % of control

S=C(N/N=C/c1ccc(Cl)cc1Cl)Nc1cccc2cccnc12
T/C (dose: 5.0 mg/kg/injection, schedule: Q01DX001 (ip), vehicle: saline): 96 % of control
T/C (dose: 10.0 mg/kg/injection, schedule: Q01DX001 (ip), vehicle: saline): 96 % of control
T/C (dose: 20.0 mg/kg/injection, schedule: Q01DX001 (ip), vehicle: saline): 86 % of control
T/C (dose: 40.0 mg/kg/injection, schedule: Q01DX001 (ip), vehicle: saline): 98 % of control
T/C (dose: 80.0 mg/kg/injection, schedule: Q01DX001 (ip), vehicle: saline): 90 % of control

NNC(=O)c1ccccc1NCCO
T/C [10]: 101 % of control
T/C [11]: 97 % of control
T/C [12]: 101 % of control

C(=N\N1CCN(/N=C/c2ccc(OCc3ccccc3)cc2)CC1)/c1ccc(OCc2ccccc2)cc1
T/C [10]: 102 % of control
T/C [11]: 96 % of control
T/C [12]: 93 % of control

Cc1c(C)c2c(Cl)c3ccccc3nc2c2ccccc12
T/C [13]: 102 % of control
T/C [7]: 100 % of control
T/C [8]: 112 % of control
T/C [9]: 100 % of control

OC(c1ccccc1)(c1ccccc1)C1C(=C(c2ccccc2)c2ccccc2)C1c1ccccc1 (stereo unspecified)
T/C (dose: 100.0 mg/kg/injection, schedule: Q01DX001 (ip), vehicle: steriod suspending solution): 104 % of control
T/C (dose: 200.0 mg/kg/injection, schedule: Q01DX001 (ip), vehicle: steriod suspending solution): 93 % of control
T/C (dose: 400.0 mg/kg/injection, schedule: Q01DX001 (ip), vehicle: steriod suspending solution): 95 % of control

C1=CC2(OCCO2)C2CC=CC3(OCCO3)C2C1 (stereo unspecified)
T/C [1]: 113 % of control
T/C [2]: 109 % of control
T/C (dose: 200.0 mg/kg/injection, schedule: Q04DX003 (ip), vehicle: saline): 98 % of control
T/C (dose: 400.0 mg/kg/injection, schedule: Q04DX003 (ip), vehicle: saline): 109 % of control

CCN(CC)CCCC(C)Nc1ccnc(/C=C/c2ccc(Br)cc2)c1 (stereo unspecified)
T/C (dose: 25.0 mg/kg/injection, schedule: Q01DX009 (ip), vehicle: Klucel (hydroxypropylcellulose) (HPC)): 98 % of control
T/C (dose: 25.0 mg/kg/injection, schedule: Q04DX003 (ip), vehicle: Klucel (hydroxypropylcellulose) (HPC)): 108 % of control
T/C (dose: 50.0 mg/kg/injection, schedule: Q01DX009 (ip), vehicle: Klucel (hydroxypropylcellulose) (HPC)): 106 % of control
T/C [13]: 108 % of control and 88 % of control
T/C [10]: 93 % of control
T/C [3]: 97 % of control
T/C [7]: 97 % of control

c1ccc2c(c1)ccc1cc3cc4cc5c(ccc6ccccc65)cc4cc3cc12
T/C (dose: 50.0 mg/kg/injection, schedule: Q04DX002 (ip), vehicle: Klucel (hydroxypropylcellulose) (HPC)): 93 % of control
T/C [5]: 90 % of control
